Earlier results as cited in patent US20090306209A1, “ENTERIC-COATED FORMULATIONS OF POLYETHYLENE GLYCOL AND ONE OR MORE SOLUBLE AMINO ACIDS FOR ORAL INGESTION AND ENHANCED UPTAKE OF SAME” (priority 2008, published 2009).
Like-named read-outs stand apart in the source and are kept apart here.

Conditions: for solubility in water (in words): temperature not stated

Row | SMILES | solubility in water (in words) | further results
1 | Cl.NC(=O)CC[C@H](N)C(=O)O [L-glutamine-HCl] | very soluble in water | 
2 | NC(=O)CC[C@H](N)C(=O)O [L-glutamine] |  | solubility in water (water at 30° C.): 5 grams/100 ml
3 | CC(C)C[C@H](N)C(=O)O.Cl [L-leucine.HCl] | very soluble in water | 
4 | CC(C)C[C@H](N)C(=O)O [L-leucine] |  | solubility in water (water at 25° C.): 2.4 g/100 ml
